No end group written: not given here.

One experiment addresses T1, SNORF72 (Homo sapiens, UniProt Q9GZQ4, A395T).
T1 construct: expressed in transfected cells; host or cells: COS-7 (transient, DEAE-dextran)
Briefly: Intracellular Ca2+ release (FLIPR) in SNORF72-transfected COS-7 cells. The class given is cell-based. Particulars: SNORF72-transfected COS-7 cells, peptides at 300 nM (FIG. 8).

The test system of another experiment is control oocytes. Briefly: Cl- currents in control oocytes lacking injection of foreign mRNA. The class given is cell-based, Xenopus laevis. How it is done: In the present invention, oocytes were harvested from Xenopus laevis and injected with mRNA transcripts as previously described (Quick and Lester, 1994; Smith et al., 1997). SNORF62 mRNA transcript was synthesized using the T7 polymerase (“Message Machine”, Ambion) from linearized plasmids or PCR products containing the complete coding region of the gene. Oocytes were injected with 1–50 ng synthetic receptor RNA and incubated for 3–8 days at 17° C. Currents were recorded under dual electrode voltage clamp (Axon Instruments Inc.) with 3 M KCl-filled glass microelectrodes having resistances of 1–2 Mohm. Unless otherwise specified, oocytes were voltage clamped at a holding potential of −80 mV. During recordings, oocytes were bathed in continuously flowing (1–3 mL/min) medium containing 96 mM NaCl, 2 mM KCl, 1.8 mM CaCl2, 1 mM MgCl2, and 5 mM HEPES, pH 7.5 (ND96). Drugs were applied either by local perfusion from a 10 μL glass capillary tube fixed at a distance of 0.5 mm from the oocyte, or by switching from a series of gravity fed perfusion lines.

Experiment [1] deals with T2, SNORF62 (Homo sapiens, UniProt Q9HB89).
T2 sequence (Q9HB89 1-426): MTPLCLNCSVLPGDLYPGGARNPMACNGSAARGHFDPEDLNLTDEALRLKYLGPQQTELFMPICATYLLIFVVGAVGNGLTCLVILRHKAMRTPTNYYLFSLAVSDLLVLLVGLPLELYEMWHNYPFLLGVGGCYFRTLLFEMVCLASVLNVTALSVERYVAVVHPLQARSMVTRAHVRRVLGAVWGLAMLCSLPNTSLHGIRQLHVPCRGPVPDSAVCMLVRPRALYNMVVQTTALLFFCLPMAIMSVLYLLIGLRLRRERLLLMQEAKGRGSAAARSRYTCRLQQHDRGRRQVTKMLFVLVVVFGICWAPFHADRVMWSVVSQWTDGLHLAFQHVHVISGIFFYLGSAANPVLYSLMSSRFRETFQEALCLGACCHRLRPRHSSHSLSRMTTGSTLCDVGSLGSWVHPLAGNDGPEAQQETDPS
Briefly: Inositol phosphate (IP) release in SNORF62-transfected COS-7 cells. Set-up: The SNORF62 cDNA codes for a protein of 426 amino acids; expressed in transfected cells; host or cells: COS-7 (transient, DEAE-dextran). Type of experiment: cell-based.
Protocol: Human SNORF62 receptor-mediated activation and human SNORF72 receptor-mediated activation of the inositol phosphate (IP) second messenger pathways were assessed by radiometric measurement of IP products.
For example, in a 96 well microplate format assay, COS-7 cells expressing the receptor of interest were plated at a density of 70,000 cells per well and allowed to incubate for 24 hours. The cells were then labeled with 0.5 μCi [^3H]myo-inositol overnight at 37° C., 5% CO2. Immediately before the assay, the medium was removed and replaced with 180 μL of Phosphate-Buffered Saline (PBS) containing 10 mM LiCl. The plates were then incubated for 20 min at 37° C., 5% CO2. Following the incubation, the cells were challenged with agonist (20 μl/well; 10× concentration) for 30 min at 37° C. The challenge was terminated by the addition of 100 μL of 5% v/v trichloroacetic acid, followed by incubation at 4° C. for greater than 30 minutes. Total IPs were isolated from the lysate by ion exchange chromatography. Briefly, the lysed contents of the wells were transferred to a Multiscreen HV filter plate (Millipore) containing Dowex AG1-X8 (200–400 mesh, formate form). The filter plates were prepared adding 100 μL of Dowex AG1-X8 suspension (50% v/v, water: resin) to each well. The filter plates were placed on a vacuum manifold to wash or elute the resin bed. Each well was first washed 2 times with 200 μl of 5 mM myo-inositol. Total [^3H]inositol phosphates were eluted with 75 μl of 1.2M ammonium formate/0.1M formic acid solution into 96-well plates. 200 μL of scintillation cocktail was added to each well, and the radioactivity was determined by liquid scintillation counting.

Experiment [2] addresses T2, SNORF62. Briefly: Calcium-activated Cl- currents in Xenopus oocytes injected with SNORF62 mRNA. Type of experiment: cell-based. Set-up: from linearized plasmids or PCR products containing the complete coding region of the gene; expressed in transfected cells; host or cells: Xenopus laevis oocytes injected with in vitro transcribed SNORF62 mRNA. Particulars: 1 μM peptide, n=3. How it is done: Heterologous expression of GPCRs in Xenopus oocytes has been widely used to determine the identity of signaling pathways activated by agonist stimulation (Gundersen et al., 1983; Takahashi et al., 1987). Activation of the phospholipase C (PLC) pathway is assayed by applying a test compound in ND96 solution to oocytes previously injected with mRNA for the human SNORF62 and observing inward currents at a holding potential of approximately −80 mV. The appearance of currents that reverse at −25 mV and display other properties of the Ca^++-activated Cl^− channel is indicative of receptor-acitivation of PLC and release of IP3 and intracellular Ca^++.
In the present invention, oocytes were harvested from Xenopus laevis and injected with mRNA transcripts as previously described (Quick and Lester, 1994; Smith et al., 1997). SNORF62 mRNA transcript was synthesized using the T7 polymerase (“Message Machine”, Ambion) from linearized plasmids or PCR products containing the complete coding region of the gene. Oocytes were injected with 1–50 ng synthetic receptor RNA and incubated for 3–8 days at 17° C. Currents were recorded under dual electrode voltage clamp (Axon Instruments Inc.) with 3 M KCl-filled glass microelectrodes having resistances of 1–2 Mohm. Unless otherwise specified, oocytes were voltage clamped at a holding potential of −80 mV. […]

T1 sequence (Q9GZQ4 whole entry A395T): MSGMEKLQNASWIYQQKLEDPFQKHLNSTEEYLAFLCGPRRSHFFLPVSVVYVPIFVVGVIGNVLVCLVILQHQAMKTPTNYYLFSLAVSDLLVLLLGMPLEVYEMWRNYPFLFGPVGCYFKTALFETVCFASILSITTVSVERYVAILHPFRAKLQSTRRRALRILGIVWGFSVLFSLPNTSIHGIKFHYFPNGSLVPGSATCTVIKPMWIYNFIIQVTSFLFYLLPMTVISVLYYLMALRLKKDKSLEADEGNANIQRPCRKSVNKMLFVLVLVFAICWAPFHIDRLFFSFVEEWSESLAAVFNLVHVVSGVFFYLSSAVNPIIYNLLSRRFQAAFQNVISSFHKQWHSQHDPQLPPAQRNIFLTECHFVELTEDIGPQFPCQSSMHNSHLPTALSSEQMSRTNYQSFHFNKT

With “FRVDEEFQSPFASQSRGYFLFRPRN-NH2 [human NMU-25, FRVDEEFQSPFASQSRGYFLFRPRN—NH2]”, on SNORF72, the “stimulation of intracellular Ca2+ release” value is on record as “stimulated”. The “response in control oocytes” value in the experiment on control oocytes is listed as “no response”. The “release of IP second messengers above basal” value on SNORF62 [1] was “approximately 2 fold”. Also, the current amplitude on SNORF62 [2] is reported as 1065±211 nA.

For the origin of these results see patent US7029857B1, “Processes for obtaining compounds employing SNORF72 receptors” (H. Lundbeck A/S, priority 1999, dated 2006).
